# Results: PubChem BioAssay (NCI)
#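 96-well plates; 48 h exposure; 5 concentrations. Endpoints by linear interpolation between flanking doses. Not reached: highest tested concentration assigned. TGI denotes the concentration required for complete inhibition of growth.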
# How the values were obtained:
# Assay in all cases: inhibition of tumour cell growth, NCI panel, 48 h
# 786-0 renal = test system: 786-0 renal
# A498 renal = test system: A498 renal
# A549 NSCLC = test system: A549 NSCLC
# BT-549 breast = test system: BT-549 breast
# CAKI-1 renal = test system: CAKI-1 renal
# CCRF-CEM leukemia = test system: CCRF-CEM leukemia
# COLO 205 colon = test system: COLO 205 colon
# DU-145 prostate = test system: DU-145 prostate
# EKVX NSCLC = test system: EKVX NSCLC
# HCT-116 colon = test system: HCT-116 colon
# HCT-15 colon = test system: HCT-15 colon
# HL-60(TB) leukemia = test system: HL-60(TB) leukemia
# HOP-62 NSCLC = test system: HOP-62 NSCLC
# HOP-92 NSCLC = test system: HOP-92 NSCLC
# HS 578T breast = test system: HS 578T breast
# HT29 colon = test system: HT29 colon
# IGROV1 ovarian = test system: IGROV1 ovarian
# K-562 leukemia = test system: K-562 leukemia
# KM12 colon = test system: KM12 colon
# LOX IMVI melanoma = test system: LOX IMVI melanoma
# M14 melanoma = test system: M14 melanoma
# MALME-3M melanoma = test system: MALME-3M melanoma
# MCF7 breast = test system: MCF7 breast
# MDA-MB-231 breast = test system: MDA-MB-231 breast
# MDA-MB-435 = test system: MDA-MB-435
# MDA-N = test system: MDA-N
# MOLT-4 leukemia = test system: MOLT-4 leukemia
# NCI-H226 lung = test system: NCI-H226 lung
# NCI-H23 lung = test system: NCI-H23 lung
# NCI-H460 lung = test system: NCI-H460 lung
# NCI/ADR-RES ovarian = test system: NCI/ADR-RES ovarian
# OVCAR-3 ovarian = test system: OVCAR-3 ovarian
# OVCAR-4 ovarian = test system: OVCAR-4 ovarian
# OVCAR-5 ovarian = test system: OVCAR-5 ovarian
# OVCAR-8 ovarian = test system: OVCAR-8 ovarian
# PC-3 prostate = test system: PC-3 prostate
# RPMI-8226 leukemia = test system: RPMI-8226 leukemia
# RXF 393 renal = test system: RXF 393 renal
# SF-268 CNS = test system: SF-268 CNS
# SF-295 CNS = test system: SF-295 CNS
# SF-539 CNS = test system: SF-539 CNS
# SK-MEL-2 melanoma = test system: SK-MEL-2 melanoma
# SK-MEL-28 melanoma = test system: SK-MEL-28 melanoma
# SK-MEL-5 melanoma = test system: SK-MEL-5 melanoma
# SK-OV-3 ovarian = test system: SK-OV-3 ovarian
# SN12C renal = test system: SN12C renal
# SNB-19 CNS = test system: SNB-19 CNS
# SNB-75 CNS = test system: SNB-75 CNS
# SR leukemia = test system: SR leukemia
# SW-620 colon = test system: SW-620 colon
# T-47D breast = test system: T-47D breast
# TK-10 renal = test system: TK-10 renal
# U251 CNS = test system: U251 CNS
# UACC-257 melanoma = test system: UACC-257 melanoma
# UACC-62 melanoma = test system: UACC-62 melanoma
# UO-31 renal = test system: UO-31 renal
# ACHN renal = test system: ACHN renal
# HCC-2998 colon = test system: HCC-2998 colon
# NCI-H522 lung = test system: NCI-H522 lung
smiles,measurement,setting,value
C=CCN1C(=O)C[C@H](Cc2ccccc2)NC(=O)C[C@H](Cc2ccccc2)N(CC=C)C(=O)C[C@H](Cc2ccccc2)NC(=O)C[C@@H]1Cc1ccccc1,TGI,786-0 renal,> 100 µM
same,TGI,A498 renal,> 100 µM
same,TGI,A549 NSCLC,> 100 µM
same,TGI,BT-549 breast,> 100 µM
same,TGI,CAKI-1 renal,> 100 µM
same,TGI,CCRF-CEM leukemia,> 100 µM
same,TGI,COLO 205 colon,5.87 µM
same,TGI,DU-145 prostate,> 100 µM
same,TGI,EKVX NSCLC,9.25 µM
same,TGI,HCT-116 colon,> 100 µM
same,TGI,HCT-15 colon,> 100 µM
same,TGI,HL-60(TB) leukemia,9.37 µM
same,TGI,HOP-62 NSCLC,> 100 µM
same,TGI,HOP-92 NSCLC,80.4 µM
same,TGI,HS 578T breast,> 100 µM
same,TGI,HT29 colon,> 100 µM
same,TGI,IGROV1 ovarian,> 100 µM
same,TGI,K-562 leukemia,> 100 µM
same,TGI,KM12 colon,> 100 µM
same,TGI,LOX IMVI melanoma,> 100 µM
same,TGI,M14 melanoma,> 100 µM
same,TGI,MALME-3M melanoma,50.6 µM
same,TGI,MCF7 breast,> 100 µM
same,TGI,MDA-MB-231 breast,> 100 µM
same,TGI,MDA-MB-435,> 100 µM
same,TGI,MDA-N,> 100 µM
same,TGI,MOLT-4 leukemia,6.91 µM
same,TGI,NCI-H226 lung,> 100 µM
same,TGI,NCI-H23 lung,> 100 µM
same,TGI,NCI-H460 lung,> 100 µM
same,TGI,NCI/ADR-RES ovarian,> 100 µM
same,TGI,OVCAR-3 ovarian,> 100 µM
same,TGI,OVCAR-4 ovarian,72 µM
same,TGI,OVCAR-5 ovarian,> 100 µM
same,TGI,OVCAR-8 ovarian,> 100 µM
same,TGI,PC-3 prostate,> 100 µM
same,TGI,RPMI-8226 leukemia,9.66 µM
same,TGI,RXF 393 renal,> 100 µM
same,TGI,SF-268 CNS,> 100 µM
same,TGI,SF-295 CNS,> 100 µM
same,TGI,SF-539 CNS,> 100 µM
same,TGI,SK-MEL-2 melanoma,> 100 µM
same,TGI,SK-MEL-28 melanoma,> 100 µM
same,TGI,SK-MEL-5 melanoma,> 100 µM
same,TGI,SK-OV-3 ovarian,> 100 µM
same,TGI,SN12C renal,> 100 µM
same,TGI,SNB-19 CNS,> 100 µM
same,TGI,SNB-75 CNS,50.1 µM
same,TGI,SR leukemia,> 100 µM
same,TGI,SW-620 colon,> 100 µM
same,TGI,T-47D breast,> 100 µM
same,TGI,TK-10 renal,> 100 µM
same,TGI,U251 CNS,> 100 µM
same,TGI,UACC-257 melanoma,> 100 µM
same,TGI,UACC-62 melanoma,> 100 µM
same,TGI,UO-31 renal,> 100 µM
CCOP(=O)(OCC)C(c1ccccc1)N(C(=O)NC(F)(F)F)c1ccc(C)cc1 (stereo not given),TGI,786-0 renal,> 100 µM
same,TGI,A498 renal,> 100 µM
same,TGI,A549 NSCLC,> 100 µM
same,TGI,ACHN renal,> 100 µM
same,TGI,BT-549 breast,> 100 µM
same,TGI,CAKI-1 renal,> 100 µM
same,TGI,CCRF-CEM leukemia,> 100 µM
same,TGI,COLO 205 colon,> 100 µM
same,TGI,DU-145 prostate,> 100 µM
same,TGI,EKVX NSCLC,> 100 µM
same,TGI,HCC-2998 colon,> 100 µM
same,TGI,HCT-116 colon,> 100 µM
same,TGI,HCT-15 colon,> 100 µM
same,TGI,HL-60(TB) leukemia,> 100 µM
same,TGI,HOP-62 NSCLC,> 100 µM
same,TGI,HOP-92 NSCLC,> 100 µM
same,TGI,HS 578T breast,> 100 µM
same,TGI,HT29 colon,> 100 µM
same,TGI,IGROV1 ovarian,> 100 µM
same,TGI,K-562 leukemia,> 100 µM
same,TGI,KM12 colon,> 100 µM
same,TGI,LOX IMVI melanoma,> 100 µM
same,TGI,M14 melanoma,> 100 µM
same,TGI,MALME-3M melanoma,> 100 µM
same,TGI,MCF7 breast,> 100 µM
same,TGI,MDA-MB-231 breast,> 100 µM
same,TGI,MDA-MB-435,> 100 µM
same,TGI,MDA-N,> 100 µM
same,TGI,MOLT-4 leukemia,> 100 µM
same,TGI,NCI-H226 lung,> 100 µM
same,TGI,NCI-H23 lung,> 100 µM
same,TGI,NCI-H460 lung,> 100 µM
same,TGI,NCI-H522 lung,> 100 µM
same,TGI,NCI/ADR-RES ovarian,> 100 µM
same,TGI,OVCAR-3 ovarian,> 100 µM
same,TGI,OVCAR-4 ovarian,> 100 µM
same,TGI,OVCAR-5 ovarian,> 100 µM
same,TGI,OVCAR-8 ovarian,> 100 µM
same,TGI,PC-3 prostate,> 100 µM
same,TGI,RPMI-8226 leukemia,> 100 µM
same,TGI,RXF 393 renal,> 100 µM
same,TGI,SF-268 CNS,> 100 µM
same,TGI,SF-295 CNS,> 100 µM
same,TGI,SF-539 CNS,> 100 µM
same,TGI,SK-MEL-2 melanoma,> 100 µM
same,TGI,SK-MEL-28 melanoma,> 100 µM
same,TGI,SK-MEL-5 melanoma,> 100 µM
same,TGI,SK-OV-3 ovarian,> 100 µM
same,TGI,SN12C renal,> 100 µM
same,TGI,SNB-19 CNS,> 100 µM
same,TGI,SNB-75 CNS,> 100 µM
same,TGI,SR leukemia,> 100 µM
same,TGI,SW-620 colon,> 100 µM
same,TGI,T-47D breast,> 100 µM
same,TGI,TK-10 renal,> 100 µM
same,TGI,U251 CNS,> 100 µM
same,TGI,UACC-257 melanoma,> 100 µM
same,TGI,UACC-62 melanoma,> 100 µM
same,TGI,UO-31 renal,> 100 µM
